Source: patent US9458141B2, “Low molecular weight thyroid stimulating hormone receptor (TSHR) agonists” (The United States of America, as represented by the …, priority 2008, dated 2016)
Where two headings read alike, the source gives them in different places.

Molecular target: T1, human TSHR (Homo sapiens, UniProt P16473)
T1 construct: expressed in transfected cells
Assay: Homogeneous Time Resolved Fluorescence (HTRF) cAMP assay, TSHR cell line
Format: cell-based
Conditions: for AC50: HTRF cAMP, TSHR cell line, 30 minute incubation; for Emax: read-out: Maximum Activity compared to TSH, 100% activity = response of 30 mU/ml TSH, 0% = DMSO control; for Maximum Activity compared to TSH: 100% activity = response of 30 mU/ml TSH, 0% = DMSO control, in %; call rule not given here

T1 sequence (P16473 21-764): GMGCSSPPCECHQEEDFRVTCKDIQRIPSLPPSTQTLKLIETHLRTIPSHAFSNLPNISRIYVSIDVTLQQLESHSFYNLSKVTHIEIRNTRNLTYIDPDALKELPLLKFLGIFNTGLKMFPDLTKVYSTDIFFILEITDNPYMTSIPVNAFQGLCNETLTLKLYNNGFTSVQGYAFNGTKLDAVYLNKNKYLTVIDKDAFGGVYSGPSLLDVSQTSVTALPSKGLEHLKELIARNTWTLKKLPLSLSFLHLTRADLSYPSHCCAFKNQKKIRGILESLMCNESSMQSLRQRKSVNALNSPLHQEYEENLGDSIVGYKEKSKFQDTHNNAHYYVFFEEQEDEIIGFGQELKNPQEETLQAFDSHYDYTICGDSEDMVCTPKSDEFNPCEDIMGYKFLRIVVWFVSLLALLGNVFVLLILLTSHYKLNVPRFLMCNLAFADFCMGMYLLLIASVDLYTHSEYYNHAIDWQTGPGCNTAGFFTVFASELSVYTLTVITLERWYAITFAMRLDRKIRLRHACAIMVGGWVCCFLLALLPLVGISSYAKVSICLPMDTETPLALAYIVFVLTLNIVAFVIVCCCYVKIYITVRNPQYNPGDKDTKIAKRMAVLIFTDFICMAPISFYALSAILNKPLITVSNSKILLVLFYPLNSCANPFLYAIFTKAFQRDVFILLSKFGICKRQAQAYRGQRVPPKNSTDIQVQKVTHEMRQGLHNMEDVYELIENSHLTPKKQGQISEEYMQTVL

SMILES	AC50	further results
COc1ccc2c(c1OC)C(=O)N1c3ccccc3C(=O)N(Cc3ccco3)C21 (stereo not drawn) [Structure 158]	inactive	
CC(=O)Nc1ccc(OCc2cccc(-c3nc4ccccc4c(=O)n3Cc3ccco3)c2)cc1 [Structure 159]	inactive	
COc1ccc(C(=O)C2C(=O)C(=O)N(Cc3ccco3)C2c2cccs2)cc1 (stereo not drawn) [Structure 160]		AC50 (read-out: AC50): 50.1 µM; Emax: 28%
COc1ccc(CN(Cc2ccccc2)C(C)=O)cc1COc1ccc(NC(C)=O)cc1 [Structure 161]	inactive	
COc1ccc(C2Nc3ccccc3C(=O)N2Cc2ccco2)cc1COc1c(C)cccc1C (stereo not drawn) [Structure 162]	inactive	
COc1ccc(C2Nc3ccccc3C(=O)N2Cc2ccccc2)cc1Oc1ccc(NC(C)=O)cc1 (stereo not drawn) [Structure 163]	inactive	
COc1ccc(C2Nc3ccccc3C(=O)N2Cc2ccccc2)cc1COc1cccc(C(F)(F)F)c1 (stereo not drawn) [Structure 164]	inactive	
CC(=O)Nc1ccc(OCc2cccc(C3Nc4ccccc4C(=O)N3Cc3ccco3)c2)cc1 (stereo not drawn) [Structure 165]	inactive	
COc1ccc(CN(Cc2ccccc2)C(=O)c2ccc(NC(C)=O)cc2)cc1COc1ccc(NC(C)=O)cc1 [Structure 166]	inactive	
COc1ccc(C(=O)N(Cc2ccccc2)Cc2ccccc2)cc1COc1ccc(NC(C)=O)cc1 [Structure 167]		Maximum Activity compared to TSH: 24.50; AC50 (read-out: AC50): 14.1 µM
COc1ccc(C(=O)N(Cc2ccccc2)Cc2ccc(OC)c(COc3ccc(NC(C)=O)cc3)c2)c(O)c1 [Structure 168]	inactive	
COc1ccc(CN(Cc2ccccc2)C(=O)c2ccccc2O)cc1 [Structure 169]		AC50 (read-out: AC50): 50.1 µM; Emax: 34%
COc1ccc(C2Nc3ccccc3C(=O)N2Cc2ccccc2)cc1COc1ccc(C#N)cc1 (stereo not drawn) [Structure 170]	inactive	
O=C1CC(c2ccco2)CC2=C1C(c1cccnc1)n1nc(C(F)(F)F)nc1N2 (stereo not drawn) [Structure 171]	inactive	
COc1ccc(C2Nc3ccccc3C(=O)N2Cc2ccccc2)cc1COc1ccccc1OC (stereo not drawn) [Structure 172]	inactive	
COc1ccc(-c2nc3ccccc3c(=O)n2Cc2ccccc2)cc1CNc1ccc(NC(C)=O)cc1 [Structure 173]		AC50 (read-out: AC50): 15.8 µM; Emax: 30%
O=C1CC(c2ccco2)CC2=C1C(c1ccc(O)cc1)n1nc(C(F)(F)F)nc1N2 (stereo not drawn) [Structure 174]	inactive	
COc1ccc(C2Nc3ccccc3C(=O)N2Cc2ccc(C(C)(C)C)cc2)cc1COc1ccc(NC(C)=O)cc1 (stereo not drawn) [Structure 175]	inactive	
CCC(=O)Nc1ccc(OCc2cc(C3Nc4ccccc4C(=O)N3Cc3ccccc3)ccc2OC)cc1 (stereo not drawn) [Structure 177]		AC50 (read-out: AC50): 5.62 µM; Emax: 29%
COc1ccc(C2Nc3ccccc3C(=O)N2Cc2ccco2)cc1 (stereo not drawn) [Structure 178]	inactive	
COc1ccc(-c2nc3ccccc3n2Cc2ccccc2)cc1COc1ccc(NC(C)=O)cc1 [Structure 179]	inactive	
O=C1c2ccccc2NC(c2ccccc2O)N1Cc1ccccc1 (stereo not drawn) [Structure 180]	inactive	
COc1ccc(-c2nc3ccc(Cl)cc3c(=O)n2Cc2ccccc2)cc1COc1ccc(NC(C)=O)cc1 [Structure 181]		AC50 (read-out: AC50): 3.98 µM; Emax: 22.5%
COc1ccc(C2Nc3ccccc3C(=O)N2Cc2ccco2)cc1COc1c(C)cccc1C (stereo not drawn) [Structure 182]	inactive	
O=C1CC(c2ccco2)CC2=C1C(c1ccncc1)n1nc(C(F)(F)F)nc1N2 (stereo not drawn) [Structure 183]	inactive	
COc1ccc(C=O)cc1COc1ccc(NC(C)=O)cc1 [Structure 184]	inactive	

SMILES	AC50	further results
COc1ccc(C2Nc3ccccc3C(=O)N2CCCN(C)C)cc1COc1ccc(NC(C)=O)cc1 (stereo not drawn) [Structure 186]	inactive	
COc1ccc(C2Nc3ccc(Cl)cc3C(=O)N2Cc2ccccc2)cc1COc1ccc(C(N)=O)cc1 (stereo not drawn) [Structure 187]	inactive	
COc1ccc(C2Nc3ccccc3C(=O)N2Cc2ccco2)cc1COc1ccc([N+](=O)[O-])cc1 (stereo not drawn) [Structure 188]	inactive	
COc1ccc(CN(Cc2ccccc2)C(=O)c2ccccc2O)cc1 [Structure 189]		Maximum Activity compared to TSH: 24.00; AC50 (read-out: AC50): 22.4 µM
COc1ccc(-c2nc3ccc(NC(C)=O)cc3c(=O)n2Cc2ccccc2)cc1COc1ccc(NC(C)=O)cc1 [Structure 191]	inactive	
O=c1c2ccccc2nc(-c2ccccc2O)n1Cc1ccccc1 [Structure 192]	inactive	
CC(=O)Nc1cccc(OCc2cccc(C3Nc4ccccc4C(=O)N3Cc3ccco3)c2)c1 (stereo not drawn) [Structure 193]	inactive	
O=C(c1ccccc1O)N(Cc1ccccc1)Cc1ccccc1 [Structure 194]		Maximum Activity compared to TSH: 27.50; AC50 (read-out: AC50): 31.6 µM
COc1ccc(-c2nc3ccccc3c(=O)n2Cc2ccccc2)cc1OCc1ccc(NC(C)=O)cc1 [Structure 195]	inactive	
COc1ccc(C2Nc3ccccc3C(=O)N2Cc2ccccc2)cc1COc1ccc(C)cc1 (stereo not drawn) [Structure 196]	inactive	
COc1ccc(C2Nc3ccccc3C(=O)N2Cc2ccc(C(F)(F)F)cc2)cc1COc1ccc(NC(C)=O)cc1 (stereo not drawn) [Structure 197]		AC50 (read-out: AC50): 2.82 µM; Emax: 17%
COc1ccc(C2Nc3ccccc3C(=O)N2Cc2ccccc2OC)cc1COc1ccc(NC(C)=O)cc1 (stereo not drawn) [Structure 198]		AC50 (read-out: AC50): 20 µM; Emax: 18%
COc1ccc(C2Nc3ccccc3C(=O)N2Cc2ccccc2)cc1COc1cccc(C)c1 (stereo not drawn) [Structure 200]		Maximum Activity compared to TSH: 38.00; AC50 (read-out: AC50): 28.2 µM
COc1ccc(C2Nc3ccccc3C(=O)N2Cc2ccccc2C)cc1COc1ccc(NC(C)=O)cc1 (stereo not drawn) [Structure 201]	inactive	
COc1ccc(C(=O)O)cc1COc1ccc(NC(C)=O)cc1 [Structure 202]	inactive	
COc1ccc(C(=O)C2C(=O)C(=O)N(Cc3ccco3)C2c2cccs2)cc1 (stereo not drawn) [Structure 205]	inactive	
COc1ccc(-c2nc3ccc(Cl)cc3c(=O)n2Cc2ccccc2)cc1COc1ccc(NC(C)=O)cc1 [Structure 206]	inactive	
COc1ccc(CN(Cc2ccccc2)C(=O)Nc2ccccc2)cc1COc1ccc(NC(C)=O)cc1 [Structure 215]		Maximum Activity compared to TSH: 20.00
COc1ccc(-c2nc3cccc(OC)c3c(=O)n2Cc2ccccc2)cc1COc1ccc(NC(C)=O)cc1 [Structure 218]		AC50 (read-out: AC50): 39.8 µM; Emax: 38%
COc1ccc(CN(Cc2ccccc2)C(=O)c2ccccc2O)cc1COc1ccc(NC(C)=O)cc1 [Structure 220]		Maximum Activity compared to TSH: 32.00; AC50 (read-out: AC50): 17.8 µM
COc1ccc(C2Nc3ccccc3C(=O)N2Cc2ccccc2)cc1COc1ccc(NC(C)=O)cc1 (stereo not drawn) [Structure 227]	inactive	
COc1ccc(C2Nc3ccccc3C(=O)N2Cc2ccccc2)cc1COc1ccccc1OC (stereo not drawn) [Structure 229]		AC50 (read-out: AC50): 8.91 µM; Emax: 23.5%
COc1ccc(C2Nc3ccccc3C(=O)N2Cc2ccccc2Cl)cc1COc1ccc(NC(C)=O)cc1 (stereo not drawn) [Structure 231]		AC50 (read-out: AC50): 3.55 µM; Emax: 16%
COc1ccc(C2Nc3ccccc3C(=O)N2Cc2ccc(C(F)(F)F)cc2)cc1COc1ccc(NC(C)=O)cc1 (stereo not drawn) [Structure 234]		Maximum Activity compared to TSH: 18.00; AC50 (read-out: AC50): 8.91 µM
COc1ccc(CN(Cc2ccccc2)C(=O)COC(C)=O)cc1COc1ccc(NC(C)=O)cc1 [Structure 236]		Maximum Activity compared to TSH: 32.00; AC50 (read-out: AC50): 35.5 µM

More lines, main results first:

AC50	SMILES	further results
inactive	COc1ccc(C2Nc3ccccc3C(=O)N2Cc2ccco2)cc1COc1ccccc1 (stereo not drawn) [Structure 207]	
inactive	COc1ccc(C2Nc3ccccc3C(=O)N2Cc2ccccc2)cc1COc1cccc(C(F)(F)F)c1 (stereo not drawn) [Structure 208]	
inactive	COc1ccc(C2Nc3ccccc3C(=O)N2CCO)cc1COc1ccc(NC(C)=O)cc1 (stereo not drawn) [Structure 209]	
inactive	COc1ccc(O)c(-c2nc3ccccc3c(=O)n2Cc2ccccc2)c1 [Structure 211]	
inactive	O=C1CC(c2ccco2)CC2=C1C(c1ccc(O)cc1)n1nc(C(F)(F)F)nc1N2 (stereo not drawn) [Structure 213]	
inactive	COc1ccc(C2Nc3ccccc3C(=O)N2Cc2ccc(C(C)(C)C)cc2)cc1COc1ccc(NC(C)=O)cc1 (stereo not drawn) [Structure 214]	
inactive	COc1ccc(O)c(C2Nc3ccccc3C(=O)N2Cc2ccccc2)c1 (stereo not drawn) [Structure 216]	
inactive	COc1ccc2c(c1OC)C(=O)N1c3ccccc3C(=O)N(Cc3ccco3)C21 (stereo not drawn) [Structure 217]	
inactive	O=C(c1ccccc1O)N(Cc1ccco1)Cc1ccco1 [Structure 219]	
inactive	COc1ccc(C2Nc3ccccc3C(=O)N2CCO)cc1COc1ccc(NC(C)=O)cc1 (stereo not drawn) [Structure 221]	
inactive	COc1ccc(CN(Cc2ccccc2)[S+](=O)([O-])c2ccccc2)cc1COc1ccc(NC(C)=O)cc1 [Structure 223]	
inactive	COc1ccc(C2Nc3ccccc3C(=O)N2CCc2ccc(Cl)cc2Cl)cc1COc1ccc(NC(C)=O)cc1 (stereo not drawn) [Structure 224]	
inactive	COc1ccc(C2Nc3ccccc3C(=O)N2CCc2ccc(Cl)cc2Cl)cc1COc1ccc(NC(C)=O)cc1 (stereo not drawn) [Structure 225]	
inactive	COc1ccc(C2Nc3ccccc3C(=O)N2Cc2ccccc2)cc1OCc1ccc(NC(C)=O)cc1 (stereo not drawn) [Structure 228]	
inactive	COc1cc(C2Nc3ccccc3C(=O)N2Cc2ccccc2)ccc1OCc1ccc(NC(C)=O)cc1 (stereo not drawn) [Structure 230]	
inactive	COc1ccc(C2Nc3ccccc3C(=O)N2Cc2ccccc2)cc1COc1ccc(C)cc1 (stereo not drawn) [Structure 232]	
inactive	COc1ccc(C2NC(=O)c3ccccc3N2)cc1COc1ccc(NC(C)=O)cc1 (stereo not drawn) [Structure 233]	
inactive	COc1ccc(C2Nc3cccc(OC)c3C(=O)N2Cc2ccccc2)cc1COc1ccc(NC(C)=O)cc1 (stereo not drawn) [Structure 235]	
inactive	COc1ccc(C2Nc3ccccc3C(=O)N2Cc2ccco2)cc1COc1ccc(N)cc1 (stereo not drawn) [Structure 237]	
